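1) Cells in 96-well plates. 2) Compound, 48 h, 5 concentrations. 3) Linear interpolation between surrounding doses. 4) Unreached endpoint = highest concentration. TGI is the concentration that stops growth completely.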
What was measured:
Assay in all cases: NCI-60 cell line screen, 48 h
[1] = system: SK-MEL-2 melanoma
[2] = system: TK-10 renal
[3] = system: COLO 205 colon
[4] = system: IGROV1 ovarian
[5] = system: HOP-62 NSCLC
[6] = system: SK-OV-3 ovarian
[7] = system: EKVX NSCLC
[8] = system: DMS 114 small cell lung
[9] = system: OVCAR-8 ovarian
[10] = system: LOX IMVI melanoma
[11] = system: SNB-75 CNS
[12] = system: 786-0 renal
[13] = system: MALME-3M melanoma
[14] = system: MOLT-4 leukemia
[15] = system: LXFL 529 NSCLC
[16] = system: HOP-92 NSCLC
[17] = system: SF-539 CNS
[18] = system: SNB-19 CNS
[19] = system: U251 CNS
[20] = system: A549 NSCLC
[21] = system: ACHN renal
[22] = system: SW-620 colon
[23] = system: DLD-1 colon
[24] = system: NCI-H23 lung
[25] = system: HT29 colon
[26] = system: DMS 273 small cell lung
[27] = system: RXF 393 renal
[28] = system: SF-295 CNS
[29] = system: NCI-H522 lung
[30] = system: M14 melanoma
[31] = system: HOP-18 NSCLC
[32] = system: SNB-78 CNS
[33] = system: M19-MEL melanoma
[34] = system: NCI-H460 lung
[35] = system: UACC-257 melanoma
[36] = system: SK-MEL-5 melanoma
[37] = system: HL-60(TB) leukemia
[38] = system: NCI-H226 lung
[39] = system: SK-MEL-28 melanoma
[40] = system: OVCAR-4 ovarian
[41] = system: KM20L2 colon
[42] = system: CAKI-1 renal
[43] = system: XF 498 CNS
[44] = system: OVCAR-5 ovarian
[45] = system: HCC-2998 colon
[46] = system: A498 renal
[47] = system: K-562 leukemia
[48] = system: UACC-62 melanoma
[49] = system: SN12C renal
[50] = system: SF-268 CNS
[51] = system: HCT-15 colon
[52] = system: KM12 colon
[53] = system: UO-31 renal
[54] = system: CCRF-CEM leukemia
[55] = system: HCT-116 colon
[56] = system: OVCAR-3 ovarian
[57] = system: RPMI-8226 leukemia

Measured: TGI

Cc1cccc(C)c1NC(=O)C(=O)C(C#N)c1ccccc1 (configuration not stated)
not listed: [57]
> 100 µM: all other assays above

Cc1ccccc1NC(=O)C(=O)c1c(O)c2ccc(O)cc2oc1=O
not listed: [7] | [17] | [28] | [32] | [44] | [45]
> 100 µM: all other assays above
